Assay results published in patent US7659251B2, “Ligand for G-protein coupled receptor FPRL2” (priority 2004, dated 2010).

Columns and labels:
FPRL2 = target: T1, FPRL2 (Homo sapiens, UniProt P25089); test: cAMP accumulation assay (HTRF, forskolin) on FPRL2-expressing CHO-K1 cells; type: cell-based; set-up: expressed in transfected cells; host or cells: CHO-K1; conditions: CHO-K1 cells expressing FPRL2 but not G alpha 16; without forskolin
T1 sequence (P25089 1-353): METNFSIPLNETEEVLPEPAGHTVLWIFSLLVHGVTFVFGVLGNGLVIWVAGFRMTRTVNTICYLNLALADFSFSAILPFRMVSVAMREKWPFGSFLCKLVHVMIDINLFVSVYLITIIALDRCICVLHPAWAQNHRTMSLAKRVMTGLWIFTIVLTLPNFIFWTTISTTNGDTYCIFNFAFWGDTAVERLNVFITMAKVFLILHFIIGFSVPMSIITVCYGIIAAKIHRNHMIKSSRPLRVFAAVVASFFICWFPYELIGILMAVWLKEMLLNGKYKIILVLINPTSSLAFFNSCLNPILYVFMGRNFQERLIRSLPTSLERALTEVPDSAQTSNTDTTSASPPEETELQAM
Experimental: The cAMP concentrations were determined using a homogeneous time-resolved fluorescence (HTRF) kit (Cis Bio International). […] The reaction was stopped by the successive addition of cAMP-XL665 and anti-cAMP cryptate diluted in lysis buffer. The plates were incubated for 60 min at room temperature and read on a Rubystar fluorimeter (BMG). […] A calibration curve was obtained by plotting delta F % versus cAMP concentrations. […] The aequorin-based assay was performed with or without overnight pretreatment with 100 ng/ml Pertussis toxin. […] For FPRL2 polymorphism analysis, HEK cells were transiently transfected with empty and wild-type or Asp338H is FPRL2-containing pcdna vector using calcium phosphate method. Cells were recovered 48 hours later and used for FACS or cAMP experiments.

FPR [1] = target: T2, FPR (Homo sapiens, UniProt P21462, E346A/V101L); test: Aequorin-based assay on CHO-K1 cells expressing FPR; type: cell-based
T2 construct: expressed in transfected cells; host or cells: CHO-K1 (with or without Galpha16 and apoaequorin)
T2 sequence (P21462 1-350 V101L/E346A): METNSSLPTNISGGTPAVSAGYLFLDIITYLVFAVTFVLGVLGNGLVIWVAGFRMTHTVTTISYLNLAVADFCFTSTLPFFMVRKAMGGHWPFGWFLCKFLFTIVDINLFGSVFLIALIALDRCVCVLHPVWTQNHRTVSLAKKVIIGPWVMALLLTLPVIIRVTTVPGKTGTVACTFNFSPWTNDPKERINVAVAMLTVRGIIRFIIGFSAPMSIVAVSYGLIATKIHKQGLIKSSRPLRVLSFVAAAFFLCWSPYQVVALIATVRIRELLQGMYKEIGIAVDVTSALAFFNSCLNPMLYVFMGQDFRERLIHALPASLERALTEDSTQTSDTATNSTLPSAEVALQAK
Description: The human coding sequences (accession numbers AC005946, M84562 and M60626, respectively) were amplified by PCR from human genomic DNA, cloned into the pcDNA3 (Invitrogen) and pEFIN3 (Euroscreen) vectors and sequenced. The pEFIN3 constructs were transfected, using Fugene 6, into CHO-K1 cells, expressing or not Gα16 and apoaequorin. G418-resistant clones were characterized for receptor expression by Northern blotting. […] Results were expressed as relative light units (RLU) or as the percentage of the response to 20 μM ATP.

[2] = system: wild-type CHO-K1 cells, ChemerinR and other GPCRs; test: Aequorin-based assay on wild-type CHO-K1 cells and CHO-K1 cells expressing ChemerinR and other GPCRs; type: cell-based; conditions: data not shown
Description: The human coding sequences (accession numbers AC005946, M84562 and M60626, respectively) were amplified by PCR from human genomic DNA, cloned into the pcDNA3 (Invitrogen) and pEFIN3 (Euroscreen) vectors and sequenced. The pEFIN3 constructs were transfected, using Fugene 6, into CHO-K1 cells, expressing or not Gα16 and apoaequorin. G418-resistant clones were characterized for receptor expression by Northern blotting. A functional assay based on the luminescence of mitochondrial aequorin was performed as described (42). Results were expressed as relative light units (RLU) or as the percentage of the response to 20 μM ATP.

FPR [3] = target: T2, FPR; test: Competition binding on FPR-expressing CHO-K1 cells, tracer [125I]-WKYMVm
Experimental: FPRL2, FPRL1 and FPR-expressing CHO-K1 cells were plated in 24 wells plates (200,000 cells per well for FPRL2, and 100,000 cells per well for the two other receptors). The next day, the cells were washed twice with a KRH buffer containing 280 mM saccharose and, for FPRL1 and FPR, 0.1 % NaN3. […] Cells were washed twice with ice cold buffer, total radioactivity was recovered with 1 M […] and counted in a gamma counter for […]

FPR [4] = target: T2, FPR; test: cAMP accumulation assay (HTRF, forskolin) on FPR-expressing CHO-K1 cells; type: cell-based
Experimental: The cAMP concentrations were determined using a homogeneous time-resolved fluorescence (HTRF) kit (Cis Bio International). Briefly, cells were detached, resuspended in Krebs Ringer Hepes buffer containing 1 mM 3-Isobutyl-1-methylxanthine, and submitted to 10 μM forskolin, alone or together with increasing concentrations of agonists for 30 min at room temperature. The reaction was stopped by the successive addition of cAMP-XL665 and anti-cAMP cryptate diluted in lysis buffer. The plates were incubated for 60 min at room temperature and read on a Rubystar fluorimeter (BMG). […] A calibration curve was obtained by plotting delta F % versus cAMP concentrations. […] The aequorin-based assay was performed with or without overnight pretreatment with 100 ng/ml Pertussis toxin. […] For FPRL2 polymorphism analysis, HEK cells were transiently transfected with empty and wild-type or Asp338H is FPRL2-containing pcdna vector using calcium phosphate method. Cells were recovered 48 hours later and used for FACS or cAMP experiments.

CC[C@H](C)[C@H](NC(=O)[C@H](CCSC)NC(=O)CNC(=O)[C@H](CC(C)C)NC(=O)[C@H](CCSC)NC(C)=O)C(=O)N[C@@H](CCCCN)C(=O)N[C@@H](CC(N)=O)C(=O)N[C@@H](CO)C(=O)N[C@@H](CC(C)C)C(=O)N[C@@H](Cc1ccccc1)C(=O)NCC(=O)N[C@@H](CO)C(=O)N[C@H](C(=O)N[C@@H](CCC(=O)O)C(=O)N[C@H](C(=O)N[C@@H](Cc1c[nH]c2ccccc12)C(=O)N1CCC[C@H]1C(=O)N[C@@H](Cc1c[nH]c2ccccc12)C(=O)N[C@@H](CCC(N)=O)C(=O)N[C@H](C(=O)N[C@@H](CC(C)C)C(=O)O)C(C)C)[C@@H](C)O)C(C)C [F2L]
stimulation of cAMP production by itself (FPRL2): unable to stimulate cAMP production
activation of FPR (FPR [1]; FIG. 6): not able to activate
EC50 (FPR [1]; FPR, −Log of EC50 in Mol/L, mean ± s.e.m., read-out: pEC50 (sequorin assay) (converted)): > 1000 nM
activity in the aequorin assay on FPR (FPR [1]; up to 5 μM): no activity was detected
activity on all other cell lines tested [2]: completely inactive
IC50 (FPR [3]; FPR, −Log of IC50 in Mol/L, mean ± s.e.m., read-out: pIC50 (binding assay) (converted)): > 1000 nM
competition for FPR binding (FPR [3]; up to concentrations of 3 μM, tracer [125I]WKYMVm): no competition
inhibition of cAMP accumulation on FPR (FPR [4]; 1 μM F2L): only partial inhibition
EC50 (FPR [4]; FPR, −Log of EC50 in Mol/L, mean ± s.e.m., read-out: pEC50 (cAMP assay) (converted)): > 1000 nM
